# Reference: patent publication US6977254B2, “Hydroxy cyclohexenyl phenyl carboxamides tocolytic oxytocin receptor antagonists” (Wyeth, priority 2001, dated 2005)
# pIC50: −log10 of the molar value.
# Key:
# [1] = molecular target: T1, human vasopressin V1a receptor subtype (Homo sapiens, UniProt P37288); assay: Vasopressin binding in CHO cell membranes expressing human vasopressin V1a subtype receptors ([3H]Manning ligand); settings: value in parentheses
# T1 construct: host or cells: CHO cells, stably transfected (pZeoSV vector for the Thibonnier line); membranes
# T1 sequence (P37288 whole entry): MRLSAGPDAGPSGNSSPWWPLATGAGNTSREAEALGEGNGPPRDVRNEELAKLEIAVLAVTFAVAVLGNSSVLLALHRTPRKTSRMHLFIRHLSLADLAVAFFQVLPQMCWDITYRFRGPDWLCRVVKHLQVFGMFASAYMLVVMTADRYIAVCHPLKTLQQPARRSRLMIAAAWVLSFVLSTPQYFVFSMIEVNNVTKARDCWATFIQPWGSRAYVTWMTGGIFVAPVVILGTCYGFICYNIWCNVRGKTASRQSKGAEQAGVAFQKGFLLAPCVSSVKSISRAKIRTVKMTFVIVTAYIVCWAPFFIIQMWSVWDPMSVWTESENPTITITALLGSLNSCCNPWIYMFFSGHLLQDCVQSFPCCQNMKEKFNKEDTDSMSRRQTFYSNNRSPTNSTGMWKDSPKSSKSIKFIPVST
# From the text: Vasopressin Binding in Chinese Hamster Ovary Cell Membranes Expressing Human Vasopressin V1a Subtype Receptors
# Chinese hamster ovary cells (CHO cells) stably transfected with the human vasopressin V1a subtype receptors were either obtained from Biosignal Inc., 1744 rue Williams, Montreal, Quebec, Canada or obtained from M. Thibonnier, Case Western Reserve University School of Medicine, Cleveland, Ohio.
# A. Passaging and Amplification of Cells:
# CHO cells transfected with the human vasopressin V1a subtype receptors obtained from M. Thibonnier (pZeoSV vector) are allowed to grow to confluency (approx. >90%) in T-150 flasks under sterile conditions, in a cell culture medium of F-12 Nutrient Mixture (HAM) with L-glutamine (Gibco Cat. #11765-054) containing 15 mM HEPES (Gibco Cat. #15630-080), 1% antibiotic/antimycotic (add 5 mL 100×, Gibco Cat. #15240-062 per 500 mL F-12), 250 μg/mL Zeocin (add 1.25 mL of 100 mg/mL Invitrogen R-250-01 per 500 mL F-12) and 10% Fetal Bovine Serum (Qualified, heat inactivated, Gibco Cat. #16140-063). The medium is removed by aspiration and the cells are washed with 10 mL of Hank's Balanced Salt solution (Gibco Cat. #14175-095). The salt solution is removed by aspiration and the cells are trypsinized with 5 mL of trypsin-EDTA (0.05% trypsin, 0.53 mM EDTA-4Na, Gibco Cat. #25300-070) for 1 min. The trypsin is removed by aspiration and the cells dislodged by tapping. Cell Culture medium (eg, 30 mL for 1:30 split) is immediately added and mixed well to inactivate trypsin. 1 mL of detached cells is added to new culture flasks containing fresh cell culture medium (eg, into 25 mL per T-150 flask), and mixed gently. The cells are incubated at 37° C. in 5% CO2. The medium is changed at 3 to 4 days interval (or as appropriate). The cells grow to confluency (approx. >75%-95%) within 7-8 days. All steps are done under sterile conditions.
# The cells are washed twice gently with Hank's Balanced Salt solution (e.g,. use 10 mL per T-150 flask). The excess is removed and the cells are bathed for 15-30 min. in an enzyme-free Cell Dissociation Buffer (e.g. use 8 mL Hank's Based, Gibco Cat. #13150-016 per T-150 flask) until the cells are loosened. The contents are transferred to centrifuge tubes (50 mL size) kept in ice bath. All subsequent steps are done at 4° C. The tubes are centrifuged at 300×g for 15 min (1380 rpm on SORVAL, Model RT6000D, using rotor for 50 mL tubes). The supernatant is discarded and the cells suspended in homogeneizing buffer(10 mM Tris-HCl containing 0.25 M sucrose and 1 mM EDTA, pH 7.4) ensuring that the volume of the buffer is about ten times the volume of the cell pellet. The cells are pooled into a centrifuge tube (50 mL) and homogenized with Polytron at setting 6 for 10 sec. The homogenate is transferred into a Potter-Elvjehm homogenizer and homogenized with 3 strokes. The homogenate is centrifuged at 1500×g for 10 min at 4° C. (3100 rpm using SORVAL, model RT6000D, using rotor for 50 mL tubes). The pellet is discarded. The supernatant is centrifuged at 100,000×g for 60 min. at 4° C. (Beckman L8-80M ultracentrifuge; spin at 37,500 rpm with rotor type 70 Ti for 50 mL tubes; 38,000 rpm with type 80Ti for 15 mL tubes; or 35,800 rpm with rotor type 45Ti). The supemantant is discarded and the pellet suspended in 3 to 4 mL of Tris buffer (50 mM TRIS-HCl, pH 7.4). The protein content is estimated by the Bradford or Lowry method. The volume of the membrane suspension is adjusted with the membrane buffer (50 mM Tris-HCl containing 0.1% BSA and 0.1 mM PMSF) to give 3.0 mg/mL (or as appropriate) of protein. The membranes are aliquoted and stored at −70° C.
# C. Radioligand Binding Assay: […]
pIC50 [1],melting point [°C],SMILES
5.84,163 to 176,"COc1cc(C2=CCCCC2)c(Cl)cc1C(=O)N1Cc2ccc(C(=O)N(C)C[C@@H]3OC(=O)O[C@H]3[C@H](O)[C@H]3COC(=O)O3)n2Cc2ccccc21 [Example 3, 10-(5-Chloro-4-cyclohex-1-en-1-yl-2-methoxybenzoyl)-N-[((4S,5S)-5-{(R)-hydroxy[(4R)-2-oxo-1,3-dioxolan-4-yl]methyl}-2-oxo-1,3-dioxolan-4-yl)methyl]-N-methyl-10,11-dihydro-5H-pyrrolo[2,1-c][1,4]benzodiazepine-3-carboxamide]"
6.21,155 to 157,"COc1cc(C2=CCCCC2)c(Cl)cc1C(=O)N1Cc2ccc(C(=O)N(C)CC(O)CO)n2Cc2ccccc21 (stereo not shown) [Example 4, 10-(5-Chloro-4-cyclohex-1-en-1-yl-2-methoxybenzoyl)-N-(2,3-dihydroxypropyl)-N-methyl-10,11-dihydro-5H-pyrrolo[2,1-c][1,4]benzodiazepine-3-carboxamide]"
